Entries after “also recorded” stand apart in the source; their conditions may differ. Where a name gives a salt, the structure may show the parent alone. Read-outs that look alike come from different tables or passages of the source.
Experiments:
[1] = format: in vivo, rat; conditions: for half-life: t1/2, rat plasma
[2] = format: in vivo, rat
[3] = AM404 concentration in rat plasma after oral administration of acetaminophen; format: in vivo; conditions: oral 20 mg/kg acetaminophen, data not shown
[4] = rat plasma, oral 20 mg/kg acetaminophen, mean
[5] = rat plasma, oral 20 mg/kg acetaminophen, mean, 20 mg/kg
[6] = male, Crl:CD(SD), rat, plasma, po, 20 mg/kg
[7] = male, Crl:CD(SD), rat, plasma, po, 20 mg/kg, oral 20 mg/kg acetaminophen, mean
[8] = male, Crl:CD(SD), rat, brain, po, 20 mg/kg

**Q.** For `CC(=O)Nc1ccc(OS(=O)(=O)O)cc1` [Sul, acetaminophen sulfate], which AUC0-2h [1, 4] is on record?
**A.** The AUC0-2h was 22.2 µg·h/g.

**Q.** And the Cmax [1, 4]?
**A.** Its Cmax is 21.7 µg/g.

**Q.** And the Kel [1, 4]?
**A.** Its Kel is 1.67 h⁻¹.

**Q.** What about the tmax [1, 4] of the same compound?
**A.** Its tmax is 15 min.

**Q.** And the t1/2 [1, 5]?
**A.** Its t1/2 is 25 min.

**Q.** For `CC(=O)Nc1ccc(O[C@@H]2O[C@H](C(=O)O)[C@@H](O)[C@H](O)[C@H]2O)cc1` [Glu, acetaminophen glucuronide], which AUC(0-t) [1, 6] is on record?
**A.** Its AUC(0-t) is 7990 ng·h/mL.

**Q.** And the Cmax [1, 6]?
**A.** Its Cmax is 9300 ng/mL.

**Q.** What about the k el [1, 6] of the same compound?
**A.** The k el was 0.000533 s⁻¹.

**Q.** What about the tmax [1, 6] of the same compound?
**A.** The tmax was 15 min.

**Q.** What about the half-life [1, 7] of the same compound?
**A.** The half-life was 25 min.

**Q.** What about the t1/2 [1, 5] of the same compound?
**A.** The t1/2 was 21.7 min.

**Q.** Which AUC(0-t) [1, 6] does the source give for `CC(=O)Nc1ccc(O)cc1` [APAP, Acetaminophen, reference compound] here?
**A.** Its AUC(0-t) is 8960 ng·h/mL.

**Q.** And the Cmax [1, 6]?
**A.** The Cmax was 15800 ng/mL.

**Q.** What about the k el [1, 6] of the same compound?
**A.** The k el was 0.000644 s⁻¹.

**Q.** What about the half-life [1, 7] of the same compound?
**A.** Its half-life is 17.9 min.

**Q.** With `CC(=O)Nc1ccc(O)c(SC[C@H](N)C(=O)O)c1` [Sys, Acetaminophen cysteine] as the compound, how does the AUC0-2h [1, 4] read?
**A.** Its AUC0-2h is 0.251 µg·h/g.

**Q.** What about the Cmax [1, 4] of the same compound?
**A.** The Cmax was 0.258 µg/g.

**Q.** What about the Kel [1, 4] of the same compound?
**A.** The Kel was 1.44 h⁻¹.

**Q.** What about the t1/2 [1, 4] of the same compound?
**A.** Its t1/2 is 29 min.

**Q.** What about the tmax [1, 4] of the same compound?
**A.** Its tmax is 30 min.

**Q.** Which AUC0-2h [1, 4] does the source give for `CC(=O)Nc1ccc(O)c(SC[C@H](NC(C)=O)C(=O)O)c1` [Mer, acetaminophen mercapturate acid] here?
**A.** Its AUC0-2h is 0.167 µg·h/g.

**Q.** What about the Cmax [1, 4] of the same compound?
**A.** The Cmax was 0.154 µg/g.

**Q.** What about the Kel [1, 4] of the same compound?
**A.** The Kel was 0.890 h⁻¹.

**Q.** What about the t1/2 [1, 4] of the same compound?
**A.** The t1/2 was 46.7 min.

**Q.** And the tmax [1, 4]?
**A.** The tmax was 30 min.

**Q.** Which “conversion rate of acetaminophen to AM404” value ([2]; calculated using AUC0-2h, oral 20 mg/kg acetaminophen, rat) does the source give for `CCCCC/C=C\C/C=C\C/C=C\C/C=C\CCCC(=O)Nc1ccc(O)cc1` [AM404, N-(4-hydroxyphenyl) arachidonamide] here?
**A.** The value was 0.0013%.

**Q.** What about the half-life [2, 8] of the same compound?
**A.** The half-life was 18.3 min.

**Q.** What about the k el [2, 8] of the same compound?
**A.** The k el was 0.000631 s⁻¹.

**Q.** What about the AUC0-2h ([2]; rat brain, oral 20 mg/kg acetaminophen, mean) of the same compound?
**A.** Its AUC0-2h is 117 pg·h/g.

**Q.** And the “concentration of AM404 in plasma” value [3]?
**A.** Its value is “undetectable; also recorded: unable to detect”.

Source: publication PMC4834746 (Anesthesiology and Pain Medicine, 2016)
